Results from ChEMBL document CHEMBL1909046, “DrugMatrix in vitro pharmacology data”.

Columns and labels:
[1] = DRUGMATRIX: Glutamate, Kainate radioligand binding (ligand: [3H] Kainic acid); type: cell membranes, Rattus norvegicus, Wistar, Brain, Membrane; details: Not Active = under 50% inhibition at 10 µM
[2] = target: 5-hydroxytryptamine receptor 1B (Rattus norvegicus, UniProt P28564); type: cell membranes, Wistar, Cerebral cortex, Membrane; also: in other assays of this panel Not Active means under 50% inhibition at 10 µM
5-hydroxytryptamine receptor 1B, sequence (P28564 whole entry): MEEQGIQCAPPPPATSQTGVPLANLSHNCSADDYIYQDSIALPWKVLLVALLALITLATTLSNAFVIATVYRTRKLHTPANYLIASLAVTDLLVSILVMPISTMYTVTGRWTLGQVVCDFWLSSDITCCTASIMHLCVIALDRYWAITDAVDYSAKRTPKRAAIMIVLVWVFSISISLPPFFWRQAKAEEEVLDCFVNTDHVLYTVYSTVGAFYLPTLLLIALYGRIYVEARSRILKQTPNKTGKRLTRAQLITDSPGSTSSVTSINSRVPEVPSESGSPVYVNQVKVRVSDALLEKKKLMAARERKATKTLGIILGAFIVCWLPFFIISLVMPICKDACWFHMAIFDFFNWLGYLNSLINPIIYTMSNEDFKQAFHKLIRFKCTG

Cannabinoid receptor 1 = Cannabinoid receptor 1 (Homo sapiens, UniProt P21554); type: cell membranes, Chem-1, Membrane; details: chem-1; also: in other assays of this panel Not Active means under 50% inhibition at 10 µM
Cannabinoid receptor 1, sequence (P21554 whole entry): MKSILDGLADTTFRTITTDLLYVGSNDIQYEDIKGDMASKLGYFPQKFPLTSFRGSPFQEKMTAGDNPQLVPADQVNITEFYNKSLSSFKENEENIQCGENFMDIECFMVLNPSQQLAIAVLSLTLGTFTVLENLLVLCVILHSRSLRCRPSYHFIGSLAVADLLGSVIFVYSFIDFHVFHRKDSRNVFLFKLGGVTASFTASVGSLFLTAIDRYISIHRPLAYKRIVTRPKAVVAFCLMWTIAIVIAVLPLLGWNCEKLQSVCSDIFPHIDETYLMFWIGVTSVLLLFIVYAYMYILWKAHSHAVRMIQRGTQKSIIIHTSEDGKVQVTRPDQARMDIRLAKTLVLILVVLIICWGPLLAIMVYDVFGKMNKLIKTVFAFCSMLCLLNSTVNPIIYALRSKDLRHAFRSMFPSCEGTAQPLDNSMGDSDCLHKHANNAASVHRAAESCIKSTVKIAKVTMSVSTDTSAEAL

[3] = target: Mitogen-activated protein kinase 3 (Homo sapiens, UniProt P27361); experiment: DRUGMATRIX: Protein Serine/Threonine Kinase, ERK1 enzyme inhibition (substrate: Myelin Basic Protein); set-up: species or system Escherichia coli; details: Not Active = under 50% inhibition at 10 µM
Mitogen-activated protein kinase 3, sequence (P27361 whole entry): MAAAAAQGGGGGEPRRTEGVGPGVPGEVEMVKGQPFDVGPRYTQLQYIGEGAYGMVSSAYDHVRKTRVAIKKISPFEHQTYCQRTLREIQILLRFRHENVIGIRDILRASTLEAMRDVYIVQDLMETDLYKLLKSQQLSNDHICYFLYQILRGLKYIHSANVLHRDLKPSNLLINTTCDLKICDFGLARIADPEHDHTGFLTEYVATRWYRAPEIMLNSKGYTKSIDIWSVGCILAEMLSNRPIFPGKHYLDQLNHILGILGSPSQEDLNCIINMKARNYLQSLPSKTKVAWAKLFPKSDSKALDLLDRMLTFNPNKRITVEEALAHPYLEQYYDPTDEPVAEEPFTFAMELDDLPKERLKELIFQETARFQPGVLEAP

[4] = target: Vascular endothelial growth factor receptor 1 (Homo sapiens, UniProt P17948); type: cell-based; details: huvec; also: in other assays of this panel Not Active means under 50% inhibition at 10 µM
Vascular endothelial growth factor receptor 1, sequence (P17948 whole entry): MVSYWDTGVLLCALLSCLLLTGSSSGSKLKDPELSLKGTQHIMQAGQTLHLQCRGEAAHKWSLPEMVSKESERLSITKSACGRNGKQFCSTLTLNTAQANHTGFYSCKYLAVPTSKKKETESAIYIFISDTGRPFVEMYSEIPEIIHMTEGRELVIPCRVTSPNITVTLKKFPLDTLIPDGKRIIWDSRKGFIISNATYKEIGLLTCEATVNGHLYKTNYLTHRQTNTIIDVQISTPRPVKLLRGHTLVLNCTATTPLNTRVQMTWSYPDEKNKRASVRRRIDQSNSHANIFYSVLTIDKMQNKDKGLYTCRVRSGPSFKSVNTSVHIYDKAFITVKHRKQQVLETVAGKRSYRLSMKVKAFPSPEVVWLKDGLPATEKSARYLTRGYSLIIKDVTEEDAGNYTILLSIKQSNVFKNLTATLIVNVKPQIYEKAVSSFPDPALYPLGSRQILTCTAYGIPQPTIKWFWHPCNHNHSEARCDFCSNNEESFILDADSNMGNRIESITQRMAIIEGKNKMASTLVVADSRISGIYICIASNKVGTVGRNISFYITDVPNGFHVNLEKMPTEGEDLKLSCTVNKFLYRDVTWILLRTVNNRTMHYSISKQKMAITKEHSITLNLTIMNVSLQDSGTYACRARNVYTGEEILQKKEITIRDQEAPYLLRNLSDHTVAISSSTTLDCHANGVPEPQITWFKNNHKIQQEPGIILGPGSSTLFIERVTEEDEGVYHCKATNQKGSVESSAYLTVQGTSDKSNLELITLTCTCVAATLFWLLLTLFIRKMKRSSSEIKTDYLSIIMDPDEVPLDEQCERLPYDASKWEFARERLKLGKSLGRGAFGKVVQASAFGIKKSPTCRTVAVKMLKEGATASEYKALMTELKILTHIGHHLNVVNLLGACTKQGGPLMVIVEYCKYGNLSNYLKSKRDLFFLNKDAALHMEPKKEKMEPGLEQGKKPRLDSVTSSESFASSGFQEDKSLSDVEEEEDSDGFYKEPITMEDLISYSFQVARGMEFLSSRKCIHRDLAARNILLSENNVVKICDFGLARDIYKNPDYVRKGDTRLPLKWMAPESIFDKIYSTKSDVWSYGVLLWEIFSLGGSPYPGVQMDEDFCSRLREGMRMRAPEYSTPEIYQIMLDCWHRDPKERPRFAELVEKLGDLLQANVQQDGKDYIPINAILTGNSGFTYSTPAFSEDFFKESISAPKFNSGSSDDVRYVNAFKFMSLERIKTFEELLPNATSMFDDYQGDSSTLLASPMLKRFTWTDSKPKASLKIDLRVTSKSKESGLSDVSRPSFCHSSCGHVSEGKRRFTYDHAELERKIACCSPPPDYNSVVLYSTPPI

[5] = target: T1, 5-hydroxytryptamine receptor 2C (Homo sapiens, UniProt P28335); experiment: DRUGMATRIX: Serotonin (5-Hydroxytryptamine) 5-HT2C radioligand binding (ligand: [3H] Mesulergine); type: cell membranes, CHO-K1, Membrane; details: cho-k1; Not Active = under 50% inhibition at 10 µM
T1 sequence (P28335 whole entry): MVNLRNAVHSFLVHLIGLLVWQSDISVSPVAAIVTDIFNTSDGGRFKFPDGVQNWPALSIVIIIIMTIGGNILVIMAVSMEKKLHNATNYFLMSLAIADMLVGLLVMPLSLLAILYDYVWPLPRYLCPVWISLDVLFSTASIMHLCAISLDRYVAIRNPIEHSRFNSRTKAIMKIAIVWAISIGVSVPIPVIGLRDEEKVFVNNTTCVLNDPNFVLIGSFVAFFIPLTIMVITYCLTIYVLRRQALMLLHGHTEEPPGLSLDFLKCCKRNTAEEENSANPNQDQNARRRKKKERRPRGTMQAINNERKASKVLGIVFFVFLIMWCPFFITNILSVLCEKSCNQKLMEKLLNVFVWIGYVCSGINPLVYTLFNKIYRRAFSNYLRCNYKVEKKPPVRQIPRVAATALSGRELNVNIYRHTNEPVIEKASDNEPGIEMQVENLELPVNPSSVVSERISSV

[6] = target: T2, 3-hydroxy-3-methylglutaryl-coenzyme A reductase (Homo sapiens, UniProt P04035); set-up: species or system Escherichia coli;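 also: enzyme inhibition assay of HMG-CoA reductase using radiolabeled [14C]HMG-CoA as substrate; in other assays of this panel Not Active means under 50% inhibition at 10 µM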
T2 sequence (P04035 whole entry): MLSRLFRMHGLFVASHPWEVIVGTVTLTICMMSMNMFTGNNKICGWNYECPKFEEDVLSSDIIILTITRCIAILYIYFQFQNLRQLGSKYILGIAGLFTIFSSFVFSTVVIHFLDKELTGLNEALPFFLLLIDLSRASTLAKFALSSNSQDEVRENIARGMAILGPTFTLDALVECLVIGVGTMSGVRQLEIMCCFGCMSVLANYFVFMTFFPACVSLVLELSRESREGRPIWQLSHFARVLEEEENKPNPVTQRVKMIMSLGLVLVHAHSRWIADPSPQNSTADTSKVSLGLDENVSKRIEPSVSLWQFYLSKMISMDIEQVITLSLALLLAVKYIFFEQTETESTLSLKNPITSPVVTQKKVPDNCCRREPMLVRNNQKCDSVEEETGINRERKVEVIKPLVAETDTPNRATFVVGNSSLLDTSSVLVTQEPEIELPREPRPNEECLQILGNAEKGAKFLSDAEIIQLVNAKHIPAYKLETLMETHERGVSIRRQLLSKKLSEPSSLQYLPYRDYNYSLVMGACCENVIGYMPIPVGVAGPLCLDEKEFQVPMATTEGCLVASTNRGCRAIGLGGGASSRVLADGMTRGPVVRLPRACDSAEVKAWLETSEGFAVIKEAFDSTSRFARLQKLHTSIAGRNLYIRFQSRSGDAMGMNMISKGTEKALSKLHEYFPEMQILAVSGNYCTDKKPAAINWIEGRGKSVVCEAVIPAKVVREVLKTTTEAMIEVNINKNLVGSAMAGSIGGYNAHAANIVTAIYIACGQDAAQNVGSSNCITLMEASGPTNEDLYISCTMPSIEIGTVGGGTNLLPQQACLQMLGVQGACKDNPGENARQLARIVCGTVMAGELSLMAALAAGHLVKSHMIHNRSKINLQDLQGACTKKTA

[7] = target: T3, Neuropeptide Y receptor type 2 (Homo sapiens, UniProt P49146); type: cell membranes, Membrane; details: kan-ts; also: in other assays of this panel Not Active means under 50% inhibition at 10 µM
T3 sequence (P49146 whole entry): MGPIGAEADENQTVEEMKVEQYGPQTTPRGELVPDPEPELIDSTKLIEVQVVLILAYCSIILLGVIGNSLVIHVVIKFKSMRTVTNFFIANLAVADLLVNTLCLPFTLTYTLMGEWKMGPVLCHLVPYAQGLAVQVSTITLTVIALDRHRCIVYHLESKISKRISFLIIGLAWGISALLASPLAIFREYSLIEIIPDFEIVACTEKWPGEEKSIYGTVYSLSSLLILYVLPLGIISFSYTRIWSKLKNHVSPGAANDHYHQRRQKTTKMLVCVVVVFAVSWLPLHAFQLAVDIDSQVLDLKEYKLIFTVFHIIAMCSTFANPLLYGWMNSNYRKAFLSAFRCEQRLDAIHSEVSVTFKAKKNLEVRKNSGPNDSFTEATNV

Cytochrome P450 2E1 = Cytochrome P450 2E1 (Homo sapiens, UniProt P05181); details: bti-tn-5b1-4; also: in other assays of this panel Not Active means under 50% inhibition at 10 µM
Cytochrome P450 2E1, sequence (P05181 whole entry): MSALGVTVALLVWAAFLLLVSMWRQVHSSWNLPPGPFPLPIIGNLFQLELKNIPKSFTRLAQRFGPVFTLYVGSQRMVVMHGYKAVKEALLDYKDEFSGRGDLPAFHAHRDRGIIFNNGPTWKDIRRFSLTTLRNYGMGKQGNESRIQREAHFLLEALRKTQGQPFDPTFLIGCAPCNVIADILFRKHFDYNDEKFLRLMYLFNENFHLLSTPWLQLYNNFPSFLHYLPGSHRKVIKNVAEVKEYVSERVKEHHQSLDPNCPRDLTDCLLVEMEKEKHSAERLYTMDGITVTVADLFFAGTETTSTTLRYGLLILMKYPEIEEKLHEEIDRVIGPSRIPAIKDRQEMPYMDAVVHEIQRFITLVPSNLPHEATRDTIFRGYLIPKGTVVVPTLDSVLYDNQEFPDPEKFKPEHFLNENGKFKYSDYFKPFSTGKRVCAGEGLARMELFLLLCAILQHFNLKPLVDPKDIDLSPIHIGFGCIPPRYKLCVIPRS

Substance-P receptor = Substance-P receptor (Homo sapiens, UniProt P25103); type: cell membranes, Membrane; details: cho; also: in other assays of this panel Not Active means under 50% inhibition at 10 µM
Substance-P receptor, sequence (P25103 whole entry): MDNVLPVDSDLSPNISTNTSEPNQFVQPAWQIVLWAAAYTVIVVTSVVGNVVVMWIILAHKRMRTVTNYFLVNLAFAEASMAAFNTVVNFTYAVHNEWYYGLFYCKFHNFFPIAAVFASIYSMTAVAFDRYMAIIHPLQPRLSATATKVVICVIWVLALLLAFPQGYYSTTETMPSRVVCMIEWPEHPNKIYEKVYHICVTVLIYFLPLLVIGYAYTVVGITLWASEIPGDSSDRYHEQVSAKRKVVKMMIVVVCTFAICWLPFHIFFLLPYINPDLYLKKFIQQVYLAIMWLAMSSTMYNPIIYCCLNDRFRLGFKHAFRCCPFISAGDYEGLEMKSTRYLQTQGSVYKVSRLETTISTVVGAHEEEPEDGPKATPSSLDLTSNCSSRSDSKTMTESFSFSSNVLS

Cytochrome P450 2A6 = target: T4, Cytochrome P450 2A6 (Homo sapiens, UniProt P11509); details: bti-tn-5b1-4; also: in other assays of this panel Not Active means under 50% inhibition at 10 µM
T4 sequence (P11509 whole entry): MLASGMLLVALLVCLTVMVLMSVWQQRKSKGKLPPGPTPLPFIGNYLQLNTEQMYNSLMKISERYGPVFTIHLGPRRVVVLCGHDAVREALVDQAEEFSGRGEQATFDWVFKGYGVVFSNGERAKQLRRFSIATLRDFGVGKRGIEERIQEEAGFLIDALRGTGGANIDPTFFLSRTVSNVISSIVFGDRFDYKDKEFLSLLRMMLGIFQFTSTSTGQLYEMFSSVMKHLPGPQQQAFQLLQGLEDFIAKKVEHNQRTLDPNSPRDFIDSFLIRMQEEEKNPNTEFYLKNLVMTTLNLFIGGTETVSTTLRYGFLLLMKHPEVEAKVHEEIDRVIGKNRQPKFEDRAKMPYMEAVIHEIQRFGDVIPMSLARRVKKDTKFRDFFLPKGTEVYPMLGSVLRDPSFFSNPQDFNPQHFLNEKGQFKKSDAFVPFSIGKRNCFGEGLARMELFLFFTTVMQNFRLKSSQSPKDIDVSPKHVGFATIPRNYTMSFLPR

CC(=O)N1CCN(c2ccc(OCC3COC(Cn4ccnc4)(c4ccc(Cl)cc4Cl)O3)cc2)CC1 (stereo not drawn) [KETOCONAZOLE]
IC50 [1]: Not Active | Ki [1]: Not Active | IC50 ([2]; read-out: IC50): 13.5 µM | Ki ([2]; read-out: Ki): 6.15 µM | IC50 (Cannabinoid receptor 1): Not Active | IC50 [3]: Not Active | IC50 [4]: Not Active | IC50 [5]: Not Active | IC50 [6]: Not Active | IC50 [7]: Not Active | IC50 (Cytochrome P450 2E1): Not Active | Ki (Cytochrome P450 2E1): Not Active | IC50 (Substance-P receptor): Not Active | IC50 (Cytochrome P450 2A6): Not Active | Ki (Cytochrome P450 2A6): Not Active

COCCCOc1ccnc(C[S+]([O-])c2nc3ccccc3[nH]2)c1C (stereo not drawn) [RABEPRAZOLE]
IC50 [1]: Not Active | Ki [1]: Not Active | IC50 [2]: Not Active | IC50 (Cannabinoid receptor 1): Not Active | IC50 [3]: Not Active | IC50 [4]: Not Active | IC50 [5]: Not Active | IC50 [6]: Not Active | IC50 [7]: Not Active | IC50 (Cytochrome P450 2E1): Not Active | Ki (Cytochrome P450 2E1): Not Active | IC50 (Substance-P receptor): Not Active | IC50 (Cytochrome P450 2A6): Not Active | Ki (Cytochrome P450 2A6): Not Active

CNC(=C[N+](=O)[O-])NCCSCc1ccc(CN(C)C)o1 [RANITIDINE]
IC50 [1]: Not Active | Ki [1]: Not Active | IC50 [2]: Not Active | IC50 (Cannabinoid receptor 1): Not Active | IC50 [3]: Not Active | IC50 [4]: Not Active | IC50 [5]: Not Active | IC50 [6]: Not Active | IC50 [7]: Not Active | IC50 (Cytochrome P450 2E1): Not Active | Ki (Cytochrome P450 2E1): Not Active | IC50 (Substance-P receptor): Not Active | IC50 (Cytochrome P450 2A6): Not Active | Ki (Cytochrome P450 2A6): Not Active

CO[C@H]1/C=C/O[C@@]2(C)Oc3c(C)c(O)c4c(c3C2=O)C2=NC3(CCN(CC(C)C)CC3)NC2=C(NC(=O)/C(C)=C\C=C\[C@H](C)[C@H](O)[C@@H](C)[C@@H](O)[C@@H](C)[C@H](OC(C)=O)[C@@H]1C)C4=O [RIFABUTIN]
IC50 [1]: Not Active | Ki [1]: Not Active | IC50 [2]: Not Active | IC50 (Cannabinoid receptor 1): Not Active | IC50 [3]: Not Active | IC50 [4]: Not Active | IC50 [5]: Not Active | IC50 [6]: Not Active | IC50 [7]: Not Active | IC50 (Cytochrome P450 2E1): Not Active | Ki (Cytochrome P450 2E1): Not Active | IC50 (Substance-P receptor): Not Active | IC50 (Cytochrome P450 2A6): Not Active | Ki (Cytochrome P450 2A6): Not Active

CC(C)CC(N(C)C)C1(c2ccc(Cl)cc2)CCC1 (stereo not drawn) [SIBUTRAMINE]
IC50 [1]: Not Active | Ki [1]: Not Active | IC50 [2]: Not Active | IC50 (Cannabinoid receptor 1): Not Active | IC50 [3]: Not Active | IC50 [4]: Not Active | IC50 [5]: Not Active | IC50 [6]: Not Active | IC50 [7]: Not Active | IC50 (Cytochrome P450 2E1): Not Active | Ki (Cytochrome P450 2E1): Not Active | IC50 (Substance-P receptor): Not Active | IC50 (Cytochrome P450 2A6): Not Active | Ki (Cytochrome P450 2A6): Not Active

[H]/N=C(/N)N[C@H]1[C@H](O)[C@@H](O)[C@H](O[C@@H]2O[C@@H](C)[C@](O)(C=O)[C@H]2O[C@@H]2O[C@@H](CO)[C@H](O)[C@@H](O)[C@@H]2NC)[C@@H](N/C(N)=N\[H])[C@@H]1O [STREPTOMYCIN]
IC50 [1]: Not Active | Ki [1]: Not Active | IC50 [2]: Not Active | IC50 (Cannabinoid receptor 1): Not Active | IC50 [3]: Not Active | IC50 [4]: Not Active | IC50 [5]: Not Active | IC50 [6]: Not Active | IC50 [7]: Not Active | IC50 (Cytochrome P450 2E1): Not Active | Ki (Cytochrome P450 2E1): Not Active | IC50 (Substance-P receptor): Not Active | IC50 (Cytochrome P450 2A6): Not Active | Ki (Cytochrome P450 2A6): Not Active

COc1cc(NS(=O)(=O)c2ccc(N)cc2)nc(OC)n1 [SULFADIMETHOXINE]
IC50 [1]: Not Active | Ki [1]: Not Active | IC50 [2]: Not Active | IC50 (Cannabinoid receptor 1): Not Active | IC50 [3]: Not Active | IC50 [4]: Not Active | IC50 [5]: Not Active | IC50 [6]: Not Active | IC50 [7]: Not Active | IC50 (Cytochrome P450 2E1): Not Active | Ki (Cytochrome P450 2E1): Not Active | IC50 (Substance-P receptor): Not Active | IC50 (Cytochrome P450 2A6): Not Active | Ki (Cytochrome P450 2A6): Not Active

Cc1cc(C)nc(NS(=O)(=O)c2ccc(N)cc2)n1 [SULFAMETHAZINE]
IC50 [1]: Not Active | Ki [1]: Not Active | IC50 [2]: Not Active | IC50 (Cannabinoid receptor 1): Not Active | IC50 [3]: Not Active | IC50 [4]: Not Active | IC50 [5]: Not Active | IC50 [6]: Not Active | IC50 [7]: Not Active | IC50 (Cytochrome P450 2E1): Not Active | Ki (Cytochrome P450 2E1): Not Active | IC50 (Substance-P receptor): Not Active | IC50 (Cytochrome P450 2A6): Not Active | Ki (Cytochrome P450 2A6): Not Active
